In experiment [1] the target is T1, GST-tagged KRAS-G12D (2-169) (Homo sapiens, UniProt P01116, G12D).
T1 construct: GST-tagged KRAS-G12D (2-169, Reaction Biology, MSC-11-539); purchased Reaction Biology MSC-11-539 (KRAS G12D); MSC-11-502 (SOS1cat)
Description: Nucleotide exchange assay (NEA), SOS-mediated, HTRF, KRAS G12D. Type of experiment: biochemical. Conditions: Table 4; IC50 extracted at 30 min. The essentials: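 GST-KRAS-G12D (2-169, 5 nM final) with Tb-anti-GST donor was preincubated with compound 1 h at RT (pH 7.3 HEPES buffer, MgCl2, DTT), then SOScat (564-1049, 20 nM) and GTP-DY-647P1 (150 nM) were added. HTRF was read at RT; % inhibition vs DMSO/no-SOS blank, 4-parameter IC50 taken at 30 min.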
(In general: Time-resolved FRET reads energy transfer from a long-lived donor to a nearby acceptor.)

Experiment [2] has as its system GP2D cells (KRAS G12D), phospho-ERK. Description: pERK In Cell Western (ICW) assay, GP2D cells. It is filed as cell-based. Conditions: Table 4, 3 hours. The procedure:
pERK ICW is a high throughput screening assay to evaluate the cellular potency of mutant KRAS small molecule inhibitors. KRAS mutant cell lines AGS and GP2D (KRAS^G12D) were purchased from ATCC and maintained respectively in RPMI and DMEM medium supplemented with 10% fetal bovine serum and Penicillin/Streptomycin.
Cells grown in exponential phase were trypsinized, resuspended in fresh media, and viable cells were counted using a cell counter with Trypan Blue (BioRad TC20). Cells were seeded into 384-well plate (Greiner 781091) at density of 5,000 cells/well for AGS and 10,000 cells/well for GP2D and allowed to grow overnight in a 37° C. CO2 incubator. The next day, compounds were dispensed into wells with a ½ log, 10-point serial dilution and top concentration of […] using Tecan D300e dispenser and incubated for 3 hours in a 37° C. CO2 incubator. Cells were then fixed with paraformaldehyde (Electron Microscopy Sciences, 15710, 4% final concentration) for 30 min, permeabilized with wash buffer (1×PBS+0.1% Triton X-100) for 30 min and blocked with Odyssey blocking buffer (Li—COR 927-70001) for 1 hour, all at room temperature (RT). Phospho-ERK antibody (CST 4370L) was diluted 1:500 in Odyssey blocking+0.2% Tween 20 and incubated with cells overnight at 4° C. The next day, plates were washed 5× with wash buffer, incubated with IRDye 800 CW, Goat anti-Rabbit secondary antibody (Li—COR 926-32211, 1:500) and DRAQ5 (CST 4084L, 1:5,000) diluted in Odyssey blocking+0.2% Tween 20 for 1 hour, washed 5×, and imaged on an Odyssey CLx imaging system.
For data analysis, signal intensities from 800 (phosphor-ERK) and 700 (DRAQ5) channels were extracted, and phospho-ERK signals were normalized to DRAQ5 signals for each well and percent of DMSO control values were computed. Data were then imported into Graphpad Prism to compute half-maximal inhibitory concentrations (IC50) using a 4-parameter variable slope model. Z-factor for each plate was computed from signals derived from wells treated with either DMSO or […] of Trametinib. AGS pERK ICW (Method B) IC50 (uM) values of selected compounds are depicted in Table 2 with compounds having a value 0.001 uM to 0.01 uM as ++++; >0.01 uM to 0.1 uM as +++; >0.1 uM to 1 uM as ++; 1 uM to 10 uM as + and >10 uM as NA.

T1 sequence (P01116 2-169 isoform P01116-2 G12D): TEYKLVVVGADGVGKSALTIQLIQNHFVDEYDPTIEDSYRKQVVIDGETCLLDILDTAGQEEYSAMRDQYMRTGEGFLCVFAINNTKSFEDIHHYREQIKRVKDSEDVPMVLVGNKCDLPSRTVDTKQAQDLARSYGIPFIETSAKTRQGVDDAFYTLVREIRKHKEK

Broadly, the IC50 is the concentration needed to halve the response being measured. For the molecule `N#Cc1c(N)sc2c1C1(CC2)CN(c2nc(OC[C@@]34CCCN3C[C@H](F)C4)nc(N3C[C@H]4CC[C@@H](C3)N4)c2F)C1` [Compound 15, 2-amino-1′-[6-(3,8-diazabicyclo[3.2.1]octan-3-yl)-5-fluoro-2-[[(2R,8S)-2-fluoro-1,2,3,5,6,7-hexahydropyrrolizin-8-yl]methoxy]pyrimidin-4-yl]spiro[5,6-dihydrocyclopenta[b]thiophene-4,3′-azetidine]-3-carbonitrile], the IC50 was below 10 nM in experiment [1] and 10 to 100 nM in experiment [2].

For `Cc1noc(-c2cc3n(n2)CCCN(c2nc(OC[C@@]45CCCN4C[C@H](F)C5)nc(N4CC5(CCc6sc(N)c(C#N)c65)C4)c2C#N)C3)n1` [Compound 16, 2-amino-1′-[5-cyano-6-[2-(3-methyl-1,2,4-oxadiazol-5-yl)-4,6,7,8-tetrahydropyrazolo[1,5-a][1,4]diazepin-5-yl]-2-[[(2R,8S)-2-fluoro-1,2,3,5,6,7-hexahydropyrrolizin-8-yl]methoxy]pyrimidin-4-yl]spiro[5,6-dihydrocyclopenta[b]thiophene-4,3′-azetidine]-3-carbonitrile], the IC50 is below 10 nM in experiment [1] and 100 to 1000 nM in experiment [2].

With `Cc1noc(-c2nn3c(c2Cl)CN(c2nc(OC[C@@]45CCCN4C[C@H](F)C5)nc(N4CC5(CCc6sc(N)c(C#N)c65)C4)c2C#N)CCC3)n1` [Compound 17, 2-amino-1′-[6-[3-chloro-2-(3-methyl-1,2,4-oxadiazol-5-yl)-4,6,7,8-tetrahydropyrazolo[1,5-a][1,4]diazepin-5-yl]-5-cyano-2-[[(2R,8S)-2-fluoro-1,2,3,5,6,7-hexahydropyrrolizin-8-yl]methoxy]pyrimidin-4-yl]spiro[5,6-dihydrocyclopenta[b]thiophene-4,3′-azetidine]-3-carbonitrile], the IC50 in experiment [1] is below 10 nM; in experiment [2], 10 to 100 nM.

Turning to `CN(C)C(=O)c1nn2c(c1Cl)CN(c1nc(OCC34CCCN3CCC4)nc(N3CC4(CCc5sc(N)c(C#N)c54)C3)c1C#N)CCC2` [Compound 18, 5-[6-(2-amino-3-cyano-spiro[5,6-dihydrocyclopenta[b]thiophene-4,3′-azetidine]-1′-yl)-5-cyano-2-(1,2,3,5,6,7-hexahydropyrrolizin-8-ylmethoxy)pyrimidin-4-yl]-3-chloro-N,N-dimethyl-4,6,7,8-tetrahydropyrazolo[1,5-a][1,4]diazepine-2-carboxamide], the figures for the IC50 in experiment [1] and in experiment [2] were below 10 nM and 10 to 100 nM, respectively.

Take `N#Cc1c(N2CCCCCC2)nc(OC[C@@]23CCCN2C[C@H](F)C3)nc1N1CC2(CCc3sc(N)c(C#N)c32)C1` [Compound 19, 2-amino-1′-[6-(azepan-1-yl)-5-cyano-2-[[(2R)-2-fluoro-1,2,3,5,6,7-hexahydropyrrolizin-8-yl]methoxy]pyrimidin-4-yl]spiro[5,6-dihydrocyclopenta[b]thiophene-4,3′-azetidine]-3-carbonitrile]: the IC50 in experiment [1] is 10 to 100 nM; in experiment [2], 100 to 1000 nM.

In the case of `CS(=O)(=O)c1cc2n(n1)CCCN(c1nc(OC[C@@]34CCCN3C[C@H](F)C4)nc(N3CC4(CCc5sc(N)c(C#N)c54)C3)c1C#N)C2` [Compound 21, 2-amino-1′-[5-cyano-2-[[(2R,8S)-2-fluoro-1,2,3,5,6,7-hexahydropyrrolizin-8-yl]methoxy]-6-(2-methylsulfonyl-4,6,7,8-tetrahydropyrazolo[1,5-a][1,4]diazepin-5-yl)pyrimidin-4-yl]spiro[5,6-dihydrocyclopenta[b]thiophene-4,3′-azetidine]-3-carbonitrile], the IC50 in experiment [1] is below 10 nM; in experiment [2] it was 10 to 100 nM.

`N#Cc1c(N)sc2c1C1(CC2)CN(c2nc(OCC3(CN4CCOCC4)CC3)nc(N3C[C@H]4CC[C@@H](C3)N4)c2F)C1` [Compound 22, 2-amino-1′-[6-(3,8-diazabicyclo[3.2.1]octan-3-yl)-5-fluoro-2-[[1-(morpholinomethyl)cyclopropyl]methoxy]pyrimidin-4-yl]spiro[5,6-dihydrocyclopenta[b]thiophene-4,3′-azetidine]-3-carbonitrile]: the IC50 in experiment [1] is below 10 nM; in experiment [2] it was 10 to 100 nM.

Consider `N#Cc1c(N2C[C@H]3CC[C@@H](C2)N3)nc(OCC2(CN3CCOCC3)CC2)nc1N1CC2(CCc3sc(N)nc32)C1` [Compound 23, 4-(2-aminospiro[5,6-dihydrocyclopenta[d]thiazole-4,3′-azetidine]-1′-yl)-2-[[1-(morpholinomethyl)cyclopropyl]methoxy]-6-[(1R,5S)-3,8-diazabicyclo[3.2.1]octan-3-yl]pyrimidine-5-carbonitrile], for which the results for the IC50 in experiment [1] and in experiment [2] were below 10 nM and 10 to 100 nM, respectively.

As for `N#Cc1cc2n(n1)CCCN(c1nc(OC[C@@]34CCCN3C[C@H](F)C4)nc(N3CC4(CCc5sc(N)c(C#N)c54)C3)c1C#N)C2` [Compound 24, 2-amino-1′-[5-cyano-6-(2-cyano-4,6,7,8-tetrahydropyrazolo[1,5-a][1,4]diazepin-5-yl)-2-[[(2R,8S)-2-fluoro-1,2,3,5,6,7-hexahydropyrrolizin-8-yl]methoxy]pyrimidin-4-yl]spiro[5,6-dihydrocyclopenta[b]thiophene-4,3′-azetidine]-3-carbonitrile], the results for the IC50 in experiment [1] and in experiment [2] were 10 to 100 nM and 100 to 1000 nM, respectively.

With `N#Cc1c(N2C[C@H]3CC[C@@H](C2)N3)nc(OC[C@@]23CCCN2C[C@H](F)C3)nc1N1CC2(CCc3sc(N)c(C#N)c32)C1` [Compound 25, 2-amino-1′-[5-cyano-6-(3,8-diazabicyclo[3.2.1]octan-3-yl)-2-[[(2R,8S)-2-fluoro-1,2,3,5,6,7-hexahydropyrrolizin-8-yl]methoxy]pyrimidin-4-yl]spiro[5,6-dihydrocyclopenta[b]thiophene-4,3′-azetidine]-3-carbonitrile], the results for the IC50 in experiment [1] and in experiment [2] were below 10 nM and 1 to 10 nM, respectively.

As to `CN(C)CC(F)(F)COc1nc(N2C[C@H]3CC[C@@H](C2)N3)c(C#N)c(N2CC3(CCc4sc(N)c(C#N)c43)C2)n1` [Compound 26, 2-amino-1′-[5-cyano-6-(3,8-diazabicyclo[3.2.1]octan-3-yl)-2-[3-(dimethylamino)-2,2-difluoro-propoxy]pyrimidin-4-yl]spiro[5,6-dihydrocyclopenta[b]thiophene-4,3′-azetidine]-3-carbonitrile], the IC50 in experiment [1] was below 10 nM; in experiment [2], 100 to 1000 nM.

Regarding `C[C@@]1(O)CCCN(c2nc(OC[C@@]34CCCN3C[C@H](F)C4)nc(N3CC4(CCc5sc(N)c(C#N)c54)C3)c2C#N)C1` [Compound 27, 2-amino-1′-[5-cyano-2-[[(2R,8S)-2-fluoro-1,2,3,5,6,7-hexahydropyrrolizin-8-yl]methoxy]-6-[(3R)-3-hydroxy-3-methyl-1-piperidyl]pyrimidin-4-yl]spiro[5,6-dihydrocyclopenta[b]thiophene-4,3′-azetidine]-3-carbonitrile], the results for the IC50 in experiment [1] and in experiment [2] were 10 to 100 nM and 100 to 1000 nM, respectively.

For the molecule `Cn1c(-c2cc3n(n2)CCCN(c2nc(OC[C@@]45CCCN4C[C@H](F)C5)nc(N4CC5(CCc6sc(N)c(C#N)c65)C4)c2C#N)C3)nc2ccccc21` [Compound 29, 2-amino-1′-[5-cyano-6-[2-(1-methylbenzimidazol-2-yl)-4,6,7,8-tetrahydropyrazolo[1,5-a][1,4]diazepin-5-yl]-2-[[(2R,8S)-2-fluoro-1,2,3,5,6,7-hexahydropyrrolizin-8-yl]methoxy]pyrimidin-4-yl]spiro[5,6-dihydrocyclopenta[b]thiophene-4,3′-azetidine]-3-carbonitrile], the IC50 in experiment [1] lay in the range of 10 to 100 nM; in experiment [2] it was 100 to 1000 nM.

As for `Cn1c(-c2nn3c(c2Cl)CN(c2nc(OC[C@@]45CCCN4C[C@H](F)C5)nc(N4CC5(CCc6sc(N)c(C#N)c65)C4)c2C#N)CCC3)nc2ccccc21` [Compound 30], the IC50 is below 10 nM in experiment [1] and 10 to 100 nM in experiment [2].

(Values after patent US12145947B2, “Pyrimidine based modulators and uses thereof” (Quanta Therapeutics, Inc., priority 2022, dated 2024).)
